Patent US7160888B2, “[1,8]naphthyridin-2-ones and related compounds for the treatment of schizophrenia” (Warner Lambert Company LLC, priority 2003, dated 2007)

Target: D2 receptor (Homo sapiens, UniProt P14416)
Experiment: [3H]Thymidine uptake assay for D2 intrinsic activity
Assay type: cell-based
Conditions: test compound 1 μM, 1 μM Quinpirole = 100% intrinsic activity
Description: D2 intrinsic activity of title compounds of the Examples, below, was determined using the [^3H]thymidine uptake assay described below.
[^3H]Thymidine Uptake Assay for D2 Intrinsic Activity
Cells are serum deprived by washing twice with 200 μl of serum-free media. 90 μl serum-free media was added to each well. The plates ware incubated for two to three hours. 10 μl of serum-containing media, as a positive control, vehicle (serum-free media), negative control (an antagonist) or test compounds and standards (10 μl of a 10 μM solution for a final concentration of 1 μM) in serum-free media were added to wells. The plates are returned to the incubator. Eighteen hours later [^3H]thymidine is added (0.5 μCi/well in 10 μl of serum-free media) and the plates are returned to the incubator. […] The plates are returned to the incubator, once again. One hour later the assay is terminated by rapid filtration through Whatman GF/C glass fiber filters. Filters are washed four times with 500 ml of 50 mM Tris-HCl pH 7.0 buffer, for example, using a Brandel MLR-96T cell harvester. […] Intrinsic activity is defined as total uptake (1 μM Quinpirole) minus serum-free media (no uptake). Test compounds are compared to 1 μM Quinpirole (full DA agonist), which was classified as 100% intrinsic activity.

D2 receptor, sequence (P14416 whole entry): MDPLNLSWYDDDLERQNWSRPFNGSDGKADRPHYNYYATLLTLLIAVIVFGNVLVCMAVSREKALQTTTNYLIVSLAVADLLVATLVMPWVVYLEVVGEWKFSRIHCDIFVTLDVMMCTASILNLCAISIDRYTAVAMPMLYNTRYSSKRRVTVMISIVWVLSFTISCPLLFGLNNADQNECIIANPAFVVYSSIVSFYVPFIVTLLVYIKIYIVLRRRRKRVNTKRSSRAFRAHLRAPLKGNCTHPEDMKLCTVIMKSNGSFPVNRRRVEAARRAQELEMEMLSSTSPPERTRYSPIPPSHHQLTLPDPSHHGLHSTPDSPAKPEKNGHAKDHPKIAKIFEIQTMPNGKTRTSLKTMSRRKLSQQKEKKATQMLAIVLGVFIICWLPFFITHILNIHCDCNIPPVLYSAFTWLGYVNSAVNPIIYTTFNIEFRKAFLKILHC

SMILES	Emax at 1 µM (Table 1)	Emax at 1 µM (Table 2)
O=c1ccc2ccc(OCCCCN3CCN(c4cccc(C(F)(F)F)c4)CC3)nc2[nH]1 [Example B15, 7-{4-[4-(3-Trifluoromethyl-phenyl)-piperazin-1-yl]-butoxy}-1H-[1,8]naphthyridin-2-one]	17%	
O=C1CCc2cnc(OCCCCN3CCN(c4cccc(Cl)c4Cl)CC3)c(Cl)c2N1 [Example I9, 8-Chloro-7-{4-[4-(2,3-dichloro-phenyl)-piperazin-1-yl]-butoxy}-3,4-dihydro-1H-[1,6]naphthyridin-2-one]	19%	
O=C1CCc2cc(Br)c(OCCCCN3CCN(c4cccc5ccccc45)CC3)nc2N1 [Example E8, 6-Bromo-7-[4-(4-naphthalen-1-yl-piperazin-1-yl)-butoxy]-3,4-dihydro-1H-[1,8]naphthyridin-2-one]	26%	
O=c1ccc2cnc(OCCCCN3CCN(c4cccc5c4OC(F)(F)O5)CC3)nc2[nH]1 [Example G7′, 2-{4-[4-(2,2-Difluoro-benzo[1,3]dioxol-4-yl)-piperazin-1-yl]-butoxy}-8H-pyrido[2,3-d]pyrimidin-7-one]		38%
CN1C(=O)CCc2cccc(N3CCN(CCCCOc4ccc5c(n4)NC(=O)CC5)CC3)c21 [Example A49′, 7-{4-[4-(1-Methyl-2-oxo-1,2,3,4-tetrahydro-quinolin-8-yl)-piperazin-1-yl]-butoxy}-3,4-dihydro-1H-[1,8]naphthyridin-2-one]		38%
O=C1CCc2ccc(OCCCCN3CCN(c4cccc5ccc(=O)[nH]c45)CC3)nc2N1 [Example A47′, 7-{4-[4-(2-Oxo-1,2-dihydro-quinolin-8-yl)-piperazin-1-yl]-butoxy}-3,4-dihydro-1H-[1,8]naphthyridin-2-one]		32%
COc1ccc2cccc(N3CCN(CCCCOc4ccc5c(n4)NC(=O)CC5)CC3)c2n1 [Example A41′, 7-{4-[4-(2-Methoxy-quinolin-8-yl)-piperazin-1-yl]-butoxy}-3,4-dihydro-1H-[1,8]naphthyridin-2-one]		32%
O=c1ccc2cnc(OCCCCN3CCN(c4cccc5c4OCCCO5)CC3)nc2[nH]1 [Example G5′, 2-{4-[4-(3,4-Dihydro-2H-benzo[b][1,4]dioxepin-6-yl)-piperazin-1-yl]-butoxy}-8H-pyrido[2,3-d]pyrimidin-7-one]		7%
O=C1CCc2cc(F)c(OCCCCN3CCN(c4cccc5cccnc45)CC3)nc2N1 [Example D1′, 6-Fluoro-7-[4-(4-quinolin-8-yl-piperazin-1-yl)-butoxy]-3,4-dihydro-1H-[1,8]naphthyridin-2-one]		24%
O=c1ccc2ccc(OCCCCN3CCN(c4ccc(F)c5ccccc45)CC3)nc2[nH]1 [Example B52, 7-{4-[4-(4-Fluoro-naphthalen-1-yl)-piperazin-1-yl]-butoxy}-1H-[1,8]naphthyridin-2-one]	17%	
O=C1CCc2ccc(OCCCCN3CCN(c4cccc5cccc(F)c45)CC3)nc2N1 [Example A66, 7-{4-[4-(8-Fluoro-naphthalen-1-yl)-piperazin-1-yl]-butoxy}-3,4-dihydro-1H-[1,8]naphthyridin-2-one]	49%	
O=C1CCc2ccc(OCCCCN3CCN(c4cccc5c4OC4(CCCC4)CC5)CC3)nc2N1 [Example A8′, 7-{4-[4-(3,4-Dihydrospiro[chromene-2,1′-cyclopentan]-8-yl)-piperazin-1-yl]-butoxy}-3,4-dihydro-1H-[1,8]naphthyridin-2-one]		30%
O=C1CCc2ccc(OCCCCN3CCN(c4ccccc4)CC3)nc2N1 [Example A39, 7-[4-(4-phenyl-piperazin-1-yl)-butoxy]-3,4-dihydro-1H-[1,8]naphthyridin-2-one]	56%	
CC1(C)CCc2cccc(N3CCN(CCCCOc4ccc5ccc(=O)[nH]c5n4)CC3)c2C1=O [Example B36, 7-{4-[4-(7,7-Dimethyl-8-oxo-5,6,7,8-tetrahydro-naphthalen-1-yl)-piperazin-1-yl]-butoxy}-1H-[1,8]naphthyridin-2-one]	39%	
Cc1ccc(Cl)cc1N1CCN(CCCCOc2ccc3c(n2)NC(=O)CC3)CC1 [Example A14, 7-{4-[4-(5-Chloro-2-methyl-phenyl)-piperazin-1-yl]-butoxy}-3,4-dihydro-1H-[1,8]naphthyridin-2-one]	7%	
O=C1CCc2ccc(OCCCCN3CCN(c4cccc5c4CCCCC5)CC3)nc2N1 [Example A63, 7-{4-[4-(6,7,8,9-Tetrahydro-5H-benzocyclohepten-1-yl)-piperazin-1-yl]-butoxy}-3,4-dihydro-1H-[1,8]naphthyridin-2-one]	4%	
O=c1ccc2ccc(OCCCCN3CCN(c4cccc5nsnc45)CC3)nc2[nH]1 [Example B40′, 7-[4-(4-Benzo[1,2,5]thiadiazol-4-yl-piperazin-1-yl)-butoxy]-1H-[1,8]naphthyridin-2-one]		49%
O=c1ccc2ccc(OCCCCN3CCN(c4cccc5nccnc45)CC3)nc2[nH]1 [Example B23′, 7-[4-(4-Quinoxalin-5-yl-piperazin-1-yl)-butoxy]-1H-[1,8]naphthyridin-2-one]		21%
O=c1ccc2ccc(OCCCCN3CCN(c4cccc5c4CCO5)CC3)nc2[nH]1 [Example B11′, 7-{4-[4-(2,3-Dihydro-benzofuran-4-yl)-piperazin-1-yl]-butoxy}-1H-[1,8]naphthyridin-2-one]		21%
O=c1ccc2ccc(OCCCCN3CCN(c4cccc5ccc(=O)[nH]c45)CC3)nc2[nH]1 [Example B36′, 7-{4-[4-(2-Oxo-1,2-dihydro-quinolin-8-yl)-piperazin-1-yl]-butoxy}-1H-[1,8]naphthyridin-2-one]		36%
Cc1nc(OCCCCN2CCN(c3cccc4ccoc34)CC2)nc2[nH]c(=O)ccc12 [Example G12′, 2-[4-(4-Benzofuran-7-yl-piperazin-1-yl)-butoxy]-4-methyl-8H-pyrido[2,3-d]pyrimidin-7-one]		36%
CC(=O)c1cccc2c(N3CCN(CCCCOc4ccc5ccc(=O)[nH]c5n4)CC3)cccc12 [Example B64, 7-{4-[4-(5-Acetyl-naphthalen-1-yl)-piperazin-1-yl]-butoxy}-1H-[1,8]naphthyridin-2-one]	27%	
O=C1CCc2cccc(N3CCN(CCCCOc4ccc5ccc(=O)[nH]c5n4)CC3)c21 [Example B44, 7-{4-[4-(3-Oxo-indan-4-yl)-piperazin-1-yl]-butoxy}-1H-[1,8]naphthyridin-2-one]	27%	
O=C1NCc2ccc(OCCCCN3CCN(c4cccc5c4CCCC5)CC3)nc2N1 [Example F4, 7-{4-[4-(5,6,7,8-Tetrahydro-naphthalen-1-yl)-piperazin-1-yl]-butoxy}-3,4-dihydro-1H-pyrido[2,3-d]pyrimidin-2-one]	23%	
COc1ccnc(N2CCN(CCCCOc3ccc4ccc(=O)[nH]c4n3)CC2)n1 [Example B31, 7-{4-[4-(4-Methoxy-pyrimidin-2-yl)-piperazin-1-yl]-butoxy}-1H-[1,8]naphthyridin-2-one]	76%	
O=C1CCc2ccc(CCCCCN3CCN(c4ccc(F)c(Cl)c4Cl)CC3)nc2N1 [Example C11, 7-{5-[4-(2,3-Dichloro-4-fluoro-phenyl)-piperazin-1-yl]-pentyl}-3,4-dihydro-1H-[1,8]naphthyridin-2-one]	7%	
COc1ccc2cccc(N3CCN(CCCCOc4nc(C)c5ccc(=O)n(C)c5n4)CC3)c2c1 [Example H14, 2-{4-[4-(7-Methoxy-naphthalen-1-yl)-piperazin-1-yl]-butoxy}-4,8-dimethyl-8H-pyrido[2,3-d]pyrimidin-7-one]	33%	
